Test results: ChEMBL document CHEMBL1201862, “PubChem BioAssay data set” (2004)
The source made the active and inactive calls.

How the values were obtained:
[1] = activation of miR-122 Renilla sensor silencing – cell-based, Huh7 psiCHECK-miR122, Renilla luciferase, cherry-picked, dose response (AID 651956); assay type: functional;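 note: huh7 hepatoma cells stably carrying a psiCHECK-2 miR-122 sensor plasmid; renilla luciferase signal reporting endogenous miR-122 activity after 48 h compound exposure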
[2] = system: Vero; assay: viability loss in Vero cells – cell-based, plate reader, cherry-pick samples, cytotoxicity control, dose response (AID 687020); assay type: functional; details: Chlorocebus sabaeus
[3] = cells; assay type: functional, cell-based; details: HEK-CNG
[4] = HEK-293T viability loss, compound-treated – cell-based, uHTS hits, cytotoxicity control for B/T-cell NF-kB inhibitor project, dose response (AID 489019); assay type: functional;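 note: IC50 reflects cytotoxicity as loss of cell viability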
[5] = system: HEK293; assay: cells; assay type: functional, cell-based; details: Homo sapiens
[6] = system: HEK293; assay: NOD2 signaling inhibitors in MDP-stimulated cells, cell-based, uHTS, luminescence (AID 2001); assay type: functional; details: Homo sapiens
[7] = target: Galanin receptor type 3 (Homo sapiens, UniProt O60755); assay: Fluorescence-based cell-based primary high throughput dose response assay to identify antagonists of the Galanin Receptor 3 (GalR3).; assay type: functional
Sequence of Galanin receptor type 3 (O60755 whole entry, the tested form may be a part): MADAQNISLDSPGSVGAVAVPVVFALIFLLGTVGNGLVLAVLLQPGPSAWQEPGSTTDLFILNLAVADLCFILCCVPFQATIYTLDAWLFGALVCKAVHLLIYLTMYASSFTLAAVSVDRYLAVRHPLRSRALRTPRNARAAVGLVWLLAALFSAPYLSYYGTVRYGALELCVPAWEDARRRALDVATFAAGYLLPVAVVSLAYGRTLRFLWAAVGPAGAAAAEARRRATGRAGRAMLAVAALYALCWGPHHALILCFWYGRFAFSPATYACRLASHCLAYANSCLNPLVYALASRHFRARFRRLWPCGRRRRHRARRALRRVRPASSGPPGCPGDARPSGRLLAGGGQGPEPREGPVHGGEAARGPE

[8] = target: Nucleotide-binding oligomerization domain-containing protein 1 (Homo sapiens, UniProt Q9Y239); assay: blockers of NOD1 pathway activity – revised, SAR follow-up (AID 2333); assay type: functional
Sequence of Nucleotide-binding oligomerization domain-containing protein 1 (Q9Y239 whole entry, the tested form may be a part): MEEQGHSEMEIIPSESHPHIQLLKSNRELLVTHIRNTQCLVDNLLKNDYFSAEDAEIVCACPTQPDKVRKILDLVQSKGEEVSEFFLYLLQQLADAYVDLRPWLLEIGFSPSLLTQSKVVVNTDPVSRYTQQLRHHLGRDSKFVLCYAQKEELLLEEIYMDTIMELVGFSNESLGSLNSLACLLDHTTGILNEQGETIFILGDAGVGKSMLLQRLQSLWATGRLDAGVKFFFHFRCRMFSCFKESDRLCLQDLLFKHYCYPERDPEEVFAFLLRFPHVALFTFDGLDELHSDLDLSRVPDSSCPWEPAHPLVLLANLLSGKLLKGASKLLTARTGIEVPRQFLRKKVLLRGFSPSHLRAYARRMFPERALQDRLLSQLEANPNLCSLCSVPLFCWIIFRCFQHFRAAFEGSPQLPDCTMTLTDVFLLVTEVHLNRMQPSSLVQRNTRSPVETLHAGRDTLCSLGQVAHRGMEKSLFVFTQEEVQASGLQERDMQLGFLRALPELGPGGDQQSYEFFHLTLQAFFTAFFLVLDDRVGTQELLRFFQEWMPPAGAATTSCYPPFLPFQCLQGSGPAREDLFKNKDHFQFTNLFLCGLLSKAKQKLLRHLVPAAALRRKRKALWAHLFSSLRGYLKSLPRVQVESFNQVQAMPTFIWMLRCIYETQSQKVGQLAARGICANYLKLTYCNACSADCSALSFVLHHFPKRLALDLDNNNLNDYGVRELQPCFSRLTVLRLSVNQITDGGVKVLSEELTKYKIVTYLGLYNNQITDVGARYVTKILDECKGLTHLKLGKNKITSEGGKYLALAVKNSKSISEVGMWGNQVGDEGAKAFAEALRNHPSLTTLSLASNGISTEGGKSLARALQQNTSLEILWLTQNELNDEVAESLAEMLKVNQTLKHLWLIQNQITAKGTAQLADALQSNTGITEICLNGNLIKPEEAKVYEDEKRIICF

[9] = system: Jurkat; assay: blockers of NF-kB activation in T cells – Jurkat, luciferase reporter, luminescence, B- and T-cell, dose response (AID 489004); assay type: functional, cell-based; details: Homo sapiens;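 note: NF-kB luciferase reporter Jurkat cells stimulated with PMA plus ionomycin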
[10] = HIV-1 AD8 envelope cell-cell fusion blockers – cherry-pick, dose response (AID 652062); assay type: functional, cell-based;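 note: luciferase signal from cell-cell fusion driven by HIV-1 clade B AD8 Env; potency is for inhibitors of fusion seen as a drop in luminescence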
[11] = off-target signal loss in HeLa-CEM21 co-culture – HeLa F-luc CTL cells, cherry-picked, counter-screen for HIV-1 Env fusion inhibitor project, dose response (AID 652040); assay type: functional, cell-based;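 note: potency for signal decrease marking cytotoxic or nonspecific inhibition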
[12] = system: HEK293; assay: cells; details: Homo sapiens
[13] = system: HEK293; assay: cells; assay type: functional, cell-based; details: Homo sapiens; remark: listed apart in the source
[14] = target: Tumor necrosis factor (Homo sapiens, UniProt P01375); assay: analog potency on TNFa NF-kB signaling – cell-based, revised, SAR follow-up (AID 2337); assay type: functional
Sequence of Tumor necrosis factor (P01375 whole entry): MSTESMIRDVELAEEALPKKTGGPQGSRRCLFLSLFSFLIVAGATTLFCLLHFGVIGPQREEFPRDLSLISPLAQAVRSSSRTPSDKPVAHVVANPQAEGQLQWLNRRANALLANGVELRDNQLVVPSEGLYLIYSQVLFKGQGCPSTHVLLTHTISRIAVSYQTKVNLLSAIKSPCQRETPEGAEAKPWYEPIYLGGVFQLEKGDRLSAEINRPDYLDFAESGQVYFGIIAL

[15] = target: Eukaryotic translation initiation factor 4E (Mus musculus, UniProt P63073); assay: blockers of eIF4G binding by eIF4E – biochemical, TR-FRET, dose response (AID 855); assay type: functional;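 note: potency for disrupting eIF4E binding to eIF4GI seen as loss of FRET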
Sequence of Eukaryotic translation initiation factor 4E (P63073 whole entry): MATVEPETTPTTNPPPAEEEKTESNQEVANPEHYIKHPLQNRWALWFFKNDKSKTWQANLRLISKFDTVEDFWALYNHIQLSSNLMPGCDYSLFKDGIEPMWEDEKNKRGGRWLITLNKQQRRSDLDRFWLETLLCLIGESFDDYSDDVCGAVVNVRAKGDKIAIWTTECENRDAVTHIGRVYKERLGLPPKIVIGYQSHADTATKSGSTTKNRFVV

[16] = system: HEK293; assay: inhibition of NOD1-driven NF-kB reporter – cell-based, luminescence, uHTS, primary screen (AID 1578); assay type: functional; details: Homo sapiens
[17] = target: 5-hydroxytryptamine receptor 2A (Mus musculus, UniProt P35363); assay type: functional, cell-based;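 note: CHO-K1 cells with tagged receptor and beta-arrestin; agonist potency measured as compound-induced activation of the receptor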
Sequence of 5-hydroxytryptamine receptor 2A (P35363 whole entry): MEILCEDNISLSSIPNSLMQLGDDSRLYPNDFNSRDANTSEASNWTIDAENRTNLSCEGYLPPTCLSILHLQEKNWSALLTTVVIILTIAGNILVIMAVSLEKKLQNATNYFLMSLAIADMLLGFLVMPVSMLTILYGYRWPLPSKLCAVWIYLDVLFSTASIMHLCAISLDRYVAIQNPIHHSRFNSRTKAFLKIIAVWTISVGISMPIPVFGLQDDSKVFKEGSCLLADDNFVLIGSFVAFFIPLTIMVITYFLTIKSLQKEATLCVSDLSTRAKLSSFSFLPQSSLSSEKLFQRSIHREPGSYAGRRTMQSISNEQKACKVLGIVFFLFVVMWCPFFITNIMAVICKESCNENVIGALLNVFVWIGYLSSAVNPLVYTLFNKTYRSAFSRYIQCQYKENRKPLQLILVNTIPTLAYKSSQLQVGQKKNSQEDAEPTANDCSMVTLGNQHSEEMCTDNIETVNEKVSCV

[18] = target: Mu-type opioid receptor (Homo sapiens, UniProt P35372); assay type: functional, cell-based;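 note: U2OS cells with beta-arrestin recruitment to OPRM1 by beta-gal complementation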
Sequence of Mu-type opioid receptor (P35372 whole entry): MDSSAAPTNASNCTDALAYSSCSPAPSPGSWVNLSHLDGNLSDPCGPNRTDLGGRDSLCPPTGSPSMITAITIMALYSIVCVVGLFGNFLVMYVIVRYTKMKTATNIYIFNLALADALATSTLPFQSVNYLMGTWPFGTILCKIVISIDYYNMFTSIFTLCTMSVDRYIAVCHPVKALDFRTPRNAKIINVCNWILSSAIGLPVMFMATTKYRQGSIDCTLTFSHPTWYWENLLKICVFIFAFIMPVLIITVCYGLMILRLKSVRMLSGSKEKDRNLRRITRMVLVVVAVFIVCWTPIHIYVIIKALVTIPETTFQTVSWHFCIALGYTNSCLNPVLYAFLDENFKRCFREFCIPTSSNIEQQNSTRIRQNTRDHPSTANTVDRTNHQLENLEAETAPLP

In the case of `CNC(=O)C[C@H]1CC[C@@H]2[C@@H](COc3ccc(NC(=O)Nc4ccc(Cl)cc4)cc3C(=O)N2C)O1`, the AC50 [1] was 29 µM (active).

For `Cc1cc(F)ccc1C(O)c1nc(-c2ccccc2C(F)(F)F)c[nH]1` (stereo not drawn), the AC50 [2] was 33.5 µM (active).

For `CCCCCn1c(=O)[nH]c2cc(C(=O)N3CCN(Cc4ccc5c(c4)OCO5)CC3)ccc2c1=O`, the EC50 [3] was > 29.9 µM (inactive), the IC50 [4] was > 80 µM (inactive) and the IC50 [5] was 970 nM (active). For the same compound, the IC50 [6] was 1.27 µM (active), the IC50 [7] was 148 nM (active) and the IC50 [8] was 771 nM (active). The IC50 [9] was > 80 µM (inactive), the AC50 [10] was < 260 nM (active) and the AC50 [11] was > 70 µM (inactive). For the same compound, the IC50 [12] was > 20 µM (inactive), the IC50 [13] was 8.7 µM (active) and the IC50 [14] was 1.18 µM (active). For the same compound, the IC50 [15] was > 64 µM (inactive) and the EC50 [16] was 360 nM (active).

With `Cc1ccc(C(=O)N/C(=C/c2ccccc2)C(=O)NC(Cc2ccccc2)C(=O)O)cc1` (stereo not drawn) the EC50 [17] was 76.1 µM (inactive) and the EC50 [18] was 92.5 µM (inactive).
